Where a name gives a salt, the structure may show the parent alone.
How the values were obtained:
[1] = system: lumican knockdown zebrafish (zLum-MO); assay: Drug screen in lumican (zLum-MO) knockdown zebrafish: big eye ratio / scleral coat enlargement; format: in vivo; settings: for outcome of the screen of about 30 drugs: lumican knockdown zebrafish model; for % of scleral enlargement in experimental group: zLum-MO knockdown model, vs. 30% of scleral enlargement in control group
Experimental: The term “big eye” denotes that an eye with a value of the axial length of the retinal pigmented epithelium layer divided by the axial length of the scleral coat is less than 0.7.
According to the disclosure, the knockdown zebrafish are exposed to a test compound at the optic cup formation stage thereof. Generally, at around 24 hours after fertilization, the optic cup of zebrafish is formed. The knockdown zebrafish can be exposed to the test compound at the optic cup formation stage. After contacting the knockdown zebrafish with the test compound, the test compound, if it is a potential candidate, may start to activate the expression of lumican and collagen fibrillogenesis, thereby decreasing the enlargement of eyeball and treating and/or preventing myopia and/or keratoconus disease. Retina lenses are established around 48 hours after fertilization, and the sclera and cornea are established around 72 hours after fertilization. At sclera and cornea establishment stage, the zebrafish are collected.
(§1) Big eye in a zebrafish is an indicator of myopia. As used herein, a “big eye” refers to an eye with an enlarged axial length of eyeball and denotes the value of the axial length of the retinal pigmented epithelium layer divided by the axial length of the scleral coat less than 0.7. The axial length of a retinal pigmented epithelium layer and the axial length of a scleral coat can be measured by any method known in the art—for example, dissecting microscopy.
The test compound can be identified as a candidate compound affecting the expression of lumican and/or collagen fibrillogenesis and/or regulation of eyeball size, and/or treating and/or preventing myopia and/or keratoconus disease if the ratio of the number of big eyes decreases relative to the total number of eyes in zebrafish or that of big eyes in control zebrafish that is not contacted with the test compound. […] Preferably, the ratio is less than 15%. More preferably, the ratio decreases to about 0% to about 30%, about 0% to about 25%, about 0% to about 20%, about 0% to about 15%, about 0% to about 10%, about 1% to about 30%, about 1% to about 25%, about 1% to about 20% or about 1% to about 15%.
Zebrafish are raised and maintained according to previously established protocols (Soules K A, Link B A. Morphogenesis of the anterior segment in the zebrafish eye. BMC Dev Biol 2005; 5:12). All experiments are performed on Tuebingen AB zebrafish raised at 28° C. on a 14-h light and 10-h dark cycle and maintained using standard methods. Embryos are staged according to morphological criteria (somite number) (Kimmel C B, Ballard W W, Kimmel S R, et al. Stages of embryonic development of the zebrafish. Dev Dyn 1995; 203(3):253-310) and timed in hours after fertilization. Embryos are generated by natural pair-wise mating, as described in the zebrafish handbook (Westerfield M. The Zebrafish Book; A Guide for the Laboratory Use of Zebrafish (Brachydanio rerio). University of Oregon Press, Eugene, 2nd edition 300P., 1993). For each mating, 4±5 pairs are set up and, on an average; 100±150 embryos per pair are generated. The zebrafish embryo is optically transparent, making it possible to detect functional and morphological changes in internal organs without having to kill or dissect the organism. Chorions are removed manually with Dumont Watchmaker's Forceps No. 5.
Morpholinos are chemically modified antisense oligonucleotides that can be designed to hybridize to the translation-initiation or splicing acceptor/donor sites of specific mRNAs (Nasevicius A, Ekker S C. Effective targeted gene ‘knockdown’ in zebrafish. Nat Genet 2000; 26(2):216-20). A morpholino-antisense oligonucleotide (Gene Tools, Philomath, Oreg.) are designed and synthesized to target the 5′-untranslated and/or flanking regions, including the translation start codon of the respective genes. The MO sequence is designed as follows: zLum-MO, 5′-[…]-3′.

zLum-MO-injected fish [2] = settings: in vivo zebrafish larvae assays; prior reference Yeh et al., J Biol Chem 2010; cited from earlier work
zLum-MO-injected fish [3] = assay: Eye morphometry and phenotype of zLum-MO-injected fish after muscarinic antagonist treatment (FIGS. 7-8); format: in vivo, zebrafish; settings: for diameter of the scleral coat / excessive axial elongation: zLum-MO-injected fish at 7 dpf, FIG. 7(C); for diameter of the scleral coat / excessive axial elongation / ratio of RPE/scleral coat (%): 0.5% atropine, 0.25% pirenzepine; for diameter of the scleral coat / excessive axial elongation / ratio of RPE/scleral coat (%) / ocular enlargement (phenotype): 0.01% methoctramine; for ratio of RPE/scleral coat (%): zLum-MO-injected fish, FIG. 7(D); for ocular enlargement (phenotype): zLum-MO-injected larvae at 7 dpf, 0.5% atropine for 2 days, 0.25% pirenzepine for 2 days, FIG. 8
Excerpt: FIGS. 7(A)-(D) depict a zebrafish drug screen assay. FIGS. 7(A) and (B) illustrate and define the outer margin of the retinal pigmented epithelium layer (RPE(red color)) and the diameter of the scleral coat (D(green color)) in zebrafish.
as §1
Morpholinos are chemically modified antisense oligonucleotides that can be designed to hybridize to the translation-initiation or splicing acceptor/donor sites of specific mRNAs (Nasevicius A, Ekker S C. Effective targeted gene ‘knockdown’ in zebrafish. Nat Genet 2000; 26(2):216-20). A morpholino-antisense oligonucleotide (Gene Tools, Philomath, Oreg.) are designed and synthesized to target the 5′-untranslated and/or flanking regions, including the translation start codon of the respective genes. The MO sequence is designed as follows: zLum-MO, 5′-[…]-3′. This oligonucleotide complemented the sequence from −8 through +17 with respect to the translation initiation codon. A random sequence MO (RS-MO) serves as a control for zLum-MO: 5′-[…]-3′. This RS-MO is obtained from Gene Tools as a standard control oligonucleotide with no target specificity (Yeh L K, Liu C Y, Kao W W, et al. Knockdown of zebrafish lumican gene (zlum) causes scleral thinning and increased size of scleral coats. J Biol Chem 2010; 285(36):28141-55).
(§2) Morpholino is resuspended in sterile water to a concentration of 1 mmol/L and diluted to […] with sterile water. The morpholinos are injected at the single-cell stage in a volume of 0.0023 nL. Here, we identified the effects of morpholinos on protein levels are assayed with western blotting from injected embryos with GAPDH as a control.

[4] = system: lumican, collagen 1a1, TGF-beta, MMP2 and TIMP2; assay: Expression patterns in atropine-treated zLum knockdown morphant (FIG. 9); format: in vivo, zebrafish
Experimental: FIG. 9 depicts atropine rescues zLum knockdown morphant.
as §2
We used several antibodies to evaluate the effects of lumican knockdown and all can be obtained from different commercial supplies. Rabbit anti-TGFβ2, Rabbit anti-MMP-2, Goat anti-TIMP-2, Goat anti-Col1a1 (L-19) and Goat anti-PDI are obtained from Santa Cruz. Mouse anti-GAPDH is obtained from Abnova.

SMILES: CC(C)c1cccc(C(C)C)c1O [Propofol, 2,6-diisopropylphenol]
- outcome of the screen of about 30 drugs [1]: effective candidate compounds
- % of scleral enlargement in experimental group [1]: 12%

SMILES: CN(C)c1ccc(O)c2c1C[C@H]1C[C@H]3[C@H](N(C)C)C(O)=C(C(N)=O)C(=O)[C@@]3(O)C(O)=C1C2=O [Minocycline hydrochloride]
- % of scleral enlargement in experimental group [1]: 4.7%

SMILES: CN1CCN(CC(=O)N2c3ccccc3C(=O)Nc3cccnc32)CC1 [Pirenzepine dihydrochloride]
- ocular enlargement caused by morpholinos (zLum-MO-injected fish [2]): effectively subdued the ocular enlargement
- diameter of the scleral coat (zLum-MO-injected fish [3]): Significant decreases
- excessive axial elongation (zLum-MO-injected fish [3]): significant decreases
- ratio of RPE/scleral coat (%) (zLum-MO-injected fish [3]): attenuate the decreasing ratio
- ocular enlargement (phenotype) (zLum-MO-injected fish [3]): decreases in ocular enlargement

SMILES: CC(C)[N+]1(C)[C@@H]2CC[C@H]1CC(OC(=O)C(CO)c1ccccc1)C2.[Br-] (some centres unmarked) [Ipratropium bromide]
- Big eye rate(%) ([1]; lumican knockdown zebrafish, big eye = RPE/scleral coat axial length < 0.7, Conc.: Atropine 0.50%, Tropicamide 1 mM, Ipratropium 50 mM, Oxybutynin 2 uM, Scopolamine 100 uM, Pirenzepine 0.25%, SB 431542 25 uM, Tamoxifen 20 uM, Doxycycline 100 ppm, Genistein 25 uM, Marimastat 50 uM, Taurine 0.2M, Minocycline 50 uM, n-acetylcysteine 10 uM, Aspirin 50 mg/L, Propofol 0.5 mM, SP600125 2.5 uM, Zileuton 1): 26.0%

SMILES: CC(=O)Oc1ccccc1C(=O)O [Aspirin]
- outcome of the screen of about 30 drugs [1]: effective candidate compounds
- % of scleral enlargement in experimental group [1]: 9.6%

SMILES: C[C@H]1c2cccc(O)c2C(=O)C2=C(O)[C@]3(O)C(=O)C(C(N)=O)=C(O)[C@@H](N(C)C)[C@@H]3[C@@H](O)[C@@H]21 [Doxycycline hyclate]
- % of scleral enlargement in experimental group [1]: 6.8%

SMILES: CNC(=O)[C@@H](NC(=O)[C@H](CC(C)C)[C@H](O)C(=O)NO)C(C)(C)C [Marimastat]
- outcome of the screen of about 30 drugs [1]: effective candidate compounds
- % of scleral enlargement in experimental group [1]: 2%

SMILES: C[C@H](CS)C(=O)N1CCC[C@H]1C(=O)O [Captopril]
- outcome of the screen of about 30 drugs [1]: effective candidate compounds

SMILES: CC(=O)N[C@@H](CS)C(=O)O [n-acetylcysteine]
- outcome of the screen of about 30 drugs [1]: effective candidate compounds
- % of scleral enlargement in experimental group [1]: 11.7%

SMILES: COc1ccccc1CNCCCCCCNCCCCCCCCNCCCCCCNCc1ccccc1OC [methoctramine]
- diameter of the scleral coat (zLum-MO-injected fish [3]): no obvious changes
- excessive axial elongation (zLum-MO-injected fish [3]): no obvious changes
- ratio of RPE/scleral coat (%) (zLum-MO-injected fish [3]): no obvious changes
- ocular enlargement (phenotype) (zLum-MO-injected fish [3]): no obvious changes in the phenotypes

SMILES: CN1[C@@H]2CC[C@H]1C[C@@H](OC(=O)C(CO)c1ccccc1)C2 (some centres unmarked) [Atropine]
- ocular enlargement caused by morpholinos (zLum-MO-injected fish [2]): effectively subdued the ocular enlargement
- expression of MMP-2 and TIMP ([4]; lumican knockdown fish, atropine treatment): returned to the normal level
- expressions of lumican, collagen 1a1, TGF-beta, MMP2 and TIMP2 in lumican morphant ([4]; zLum knockdown morphant treated with atropine, FIG. 9): reverse the expressions
- scleral coat enlargement (zLum-MO-injected fish [3]; lumican knockdown fish, administration of atropine, FIGS. 7 to 9): could be inhibited
- diameter of the scleral coat (zLum-MO-injected fish [3]): Significant decreases
- excessive axial elongation (zLum-MO-injected fish [3]): significant decreases
- ratio of RPE/scleral coat (%) (zLum-MO-injected fish [3]): attenuate the decreasing ratio
- ocular enlargement (phenotype) (zLum-MO-injected fish [3]): significant decreases in ocular enlargement

— patent US20140073611A1, “METHODS FOR DRUG SCREEN USING ZEBRAFISH MODEL AND THE COMPOUNDS SCREENED THEREFROM” (National Taiwan University, priority 2012, published 2014)
